Results reported in ChEMBL document CHEMBL3046658, “Fate of cyromazine applied in nutrient solution to a gerbera (Gerbera jamesonii) crop grown in a closed hydroponic system” (Crop Prot, 2007).

Key:
Assay type in all cases: ADME; call rule not given here
[1] = system: Flower; test: Drug recovery in flower of Gerbera jamesonii grown in closed hydroponic system at 45 g applied through nutrient solution measured on day 56 post-treatment by gas chromatographic analysis; conditions: in vivo, other
[2] = system: Flower; test: Drug level in flower of Gerbera jamesonii grown in closed hydroponic system assessed per fresh weight at 750 mg/l applied through nutrient solution measured on day 121 post-treatment in winter by gas chromatographic analysis; conditions: other
[3] = system: Leaf; test: Drug level in leaf of Gerbera jamesonii grown in closed hydroponic system assessed per fresh weight at 750 mg/l applied through nutrient solution measured on day 56 post-treatment in winter by gas chromatographic analysis; conditions: other
[4] = system: Flower; test: Drug level in flower of Gerbera jamesonii grown in closed hydroponic system assessed per fresh weight at 375 mg/l applied through nutrient solution measured on day 121 post-treatment in winter by gas chromatographic analysis; conditions: other
[5] = system: Leaf; test: Drug level in leaf of Gerbera jamesonii grown in closed hydroponic system assessed per fresh weight at 375 mg/l applied through nutrient solution measured on day 56 post-treatment in winter by gas chromatographic analysis; conditions: other
[6] = system: Leaf; test: Drug level in leaf of Gerbera jamesonii grown in closed hydroponic system assessed per fresh weight at 750 mg/l applied through nutrient solution measured on day 121 post-treatment in winter by gas chromatographic analysis; conditions: other
[7] = system: Root; test: Drug level in root of Gerbera jamesonii grown in closed hydroponic system assessed per fresh weight at 750 mg/l applied through nutrient solution measured on day 17 post-treatment in winter by gas chromatographic analysis; conditions: other
[8] = system: Flower; test: Drug recovery in flower of Gerbera jamesonii grown in closed hydroponic system at 22.5 g applied through nutrient solution measured on day 56 post-treatment by gas chromatographic analysis; conditions: in vivo, other
[9] = system: Flower; test: Drug level in flower of Gerbera jamesonii grown in closed hydroponic system assessed per fresh weight at 750 mg/l applied through nutrient solution measured on day 56 post-treatment in winter by gas chromatographic analysis; conditions: other
[10] = system: Root; test: Drug level in root of Gerbera jamesonii grown in closed hydroponic system assessed per fresh weight at 375 mg/l applied through nutrient solution measured on day 121 post-treatment in winter by gas chromatographic analysis; conditions: other
[11] = system: Leaf; test: Drug recovery in leaf of Gerbera jamesonii grown in closed hydroponic system at 45 g applied through nutrient solution measured on day 56 post-treatment by gas chromatographic analysis; conditions: in vivo, other
[12] = system: Root; test: Drug recovery in root of Gerbera jamesonii grown in closed hydroponic system at 22.5 g applied through nutrient solution measured on day 56 post-treatment by gas chromatographic analysis; conditions: in vivo, other
[13] = system: Leaf; test: Drug level in leaf of Gerbera jamesonii grown in closed hydroponic system assessed per fresh weight at 375 mg/l applied through nutrient solution measured on day 50 post-treatment in summer by gas chromatographic analysis; conditions: other
[14] = system: Flower; test: Drug level in flower of Gerbera jamesonii grown in closed hydroponic system at 750 mg/l applied through nutrient solution measured 48 hr post-treatment in winter by gas chromatographic analysis; conditions: other
[15] = system: Root; test: Drug recovery in root of Gerbera jamesonii grown in closed hydroponic system at 45 g applied through nutrient solution measured on day 56 post-treatment by gas chromatographic analysis; conditions: in vivo, other
[16] = system: Leaf; test: Drug recovery in leaf of Gerbera jamesonii grown in closed hydroponic system at 22.5 g applied through nutrient solution measured on day 56 post-treatment by gas chromatographic analysis; conditions: in vivo, other
[17] = system: Leaf; test: Drug level in leaf of Gerbera jamesonii grown in closed hydroponic system assessed per fresh weight at 375 mg/l applied through nutrient solution measured on day 121 post-treatment in winter by gas chromatographic analysis; conditions: other
[18] = system: Root; test: Drug level in root of Gerbera jamesonii grown in closed hydroponic system assessed per fresh weight at 750 mg/l applied through nutrient solution measured on day 121 post-treatment in winter by gas chromatographic analysis; conditions: other
[19] = system: Flower; test: Drug level in flower of Gerbera jamesonii grown in closed hydroponic system assessed per fresh weight at 375 mg/l applied through nutrient solution measured on day 56 post-treatment in winter by gas chromatographic analysis; conditions: other
[20] = system: Flower; test: Drug level in flower of Gerbera jamesonii grown in closed hydroponic system at 375 mg/l applied through nutrient solution measured 48 hr post-treatment in winter by gas chromatographic analysis; conditions: other
[21] = system: Root; test: Drug level in root of Gerbera jamesonii grown in closed hydroponic system assessed per fresh weight at 375 mg/l applied through nutrient solution measured on day 17 post-treatment in winter by gas chromatographic analysis; conditions: other

Nc1nc(N)nc(NC2CC2)n1 [CYROMAZINE] was tested. Which Drug recovery [1] did it give?
The Drug recovery was 27%.

And the Drug uptake [2]?
The Drug uptake was 2.2 mg/kg.

And the Drug uptake [3]?
Its Drug uptake is 129.7 mg/kg.

And the Drug uptake [4]?
The Drug uptake was 1.9 mg/kg.

And the Drug uptake [5]?
The Drug uptake was 105 mg/kg.

And the Drug uptake [6]?
Its Drug uptake is 61.8 mg/kg.

And the Drug uptake [7]?
The Drug uptake was 93 mg/kg.

What about the Drug recovery [8] of the same compound?
The Drug recovery was 44%.

And the Drug uptake [9]?
The Drug uptake was 48.2 mg/kg.

What about the Drug uptake [10] of the same compound?
Its Drug uptake is 12.2 mg/kg.

And the Drug recovery [11]?
Its Drug recovery is 27%.

And the Drug recovery [12]?
Its Drug recovery is 44%.

What about the Drug uptake [13] of the same compound?
Its Drug uptake is 65.8 mg/kg.

What about the Drug uptake [14] of the same compound?
Its Drug uptake is “Not Active”.

And the Drug recovery [15]?
The Drug recovery was 27%.

What about the Drug recovery [16] of the same compound?
Its Drug recovery is 44%.

What about the Drug uptake [17] of the same compound?
Its Drug uptake is 51.5 mg/kg.

What about the Drug uptake [18] of the same compound?
Its Drug uptake is 15.1 mg/kg.

And the Drug uptake [19]?
Its Drug uptake is 32.3 mg/kg.

And the Drug uptake [20]?
Its Drug uptake is “Not Active”.

And the Drug uptake [21]?
The Drug uptake was 105 mg/kg.
